# Measured values published in the supplement of paper PMC10307832.
# Columns and labels:
# Test in all cases: relative viability (nuclei count vs DMSO), 5 days (fraction); higher = more cells survive
# [1] = compound: CN(NC(=O)CC(=O)NN(C)C(=S)c1ccccc1)C(=S)c1ccccc1 [Elesclomol] + Nc1ncn([C@H]2C[C@H](O)[C@@H](CO)O2)c(=O)n1 [Decitabine] (partner 2 µM)
# Procedure, shortened: (§1)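 Relative viability divides the nuclei count in treated wells by that in vehicle wells. Lung cancer cell lines were seeded in 1536-well plates, dosed by pin tool the next day, and fixed and stained after 5 days in one step with final 0.05% Triton X-100, 1% formaldehyde and 1 ug/ml Hoechst. Dosing was a single drug or a fixed anchor-drug dose plus five library-drug doses (not always all listed) in √10 steps, and values are medians of duplicate plates imaged at 4×.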
# [2] = compound: CN(NC(=O)CC(=O)NN(C)C(=S)c1ccccc1)C(=S)c1ccccc1 [Elesclomol] + N=C(N)NC(=N)NCCc1ccccc1 [Phenformin] (partner 250 µM)
# Procedure, shortened: as §1
# [3] = compound: CN(NC(=O)CC(=O)NN(C)C(=S)c1ccccc1)C(=S)c1ccccc1 [Elesclomol] + C[C@]1(O)C[C@@H](c2nc(-c3ccc4ccc(-c5ccccc5)nc4c3)c3c(N)nccn32)C1 [Linsitinib] (partner 1 µM)
# Procedure, shortened: as §1
# [4] = compound: CN(NC(=O)CC(=O)NN(C)C(=S)c1ccccc1)C(=S)c1ccccc1 [Elesclomol] + NC(=O)Nc1cc(-c2cccc(F)c2)sc1C(=O)N[C@H]1CCCNC1 [AZD7762] (partner 0.2 µM)
# Procedure, shortened: as §1
# [5] = compound: CN(NC(=O)CC(=O)NN(C)C(=S)c1ccccc1)C(=S)c1ccccc1 [Elesclomol] + CC(C)C[C@H](NC(=O)[C@H](Cc1ccccc1)NC(=O)c1cnccn1)B(O)O [Bortezomib] (partner 0.002 µM)
# Procedure, shortened: as §1
Cell Line,relative viability ([1]; first compound 0.003162 µM),relative viability ([1]; first compound 0.01 µM),relative viability ([1]; first compound 0.03162 µM),relative viability ([1]; first compound 0.1 µM),relative viability ([2]; first compound 0.003162 µM),relative viability ([2]; first compound 0.01 µM),relative viability ([2]; first compound 0.03162 µM),relative viability ([2]; first compound 0.1 µM),relative viability ([3]; first compound 0.003162 µM),relative viability ([3]; first compound 0.01 µM),relative viability ([3]; first compound 0.03162 µM),relative viability ([3]; first compound 0.1 µM),relative viability ([4]; first compound 0.003162 µM),relative viability ([4]; first compound 0.01 µM),relative viability ([4]; first compound 0.03162 µM),relative viability ([4]; first compound 0.1 µM),relative viability ([5]; first compound 0.003162 µM),relative viability ([5]; first compound 0.01 µM),relative viability ([5]; first compound 0.03162 µM),relative viability ([5]; first compound 0.1 µM)
NCI-H838,0.469,0.433,0.403,0.249,0.536,0.508,0.455,0.152,1.02,0.907,0.879,0.688,0.989,0.87,0.735,0.613,0.825,0.581,0.621,0.609
NCI-H1355,0.352,0.336,0.268,0.2,0.464,0.409,0.391,0.312,0.803,0.663,0.486,0.17,0.793,0.7,0.478,0.179,1.15,1.08,0.828,0.24
NCI-H1437,0.602,0.493,0.438,0.337,0.292,0.252,0.246,0.217,0.883,0.56,0.271,0.186,0.938,0.644,0.547,0.594,0.388,0.32,0.268,0.264
NCI-H1651,0.596,0.608,0.577,0.4,0.321,0.257,0.151,0.1,0.748,0.673,0.193,0.111,0.462,0.469,0.345,0.334,0.859,0.931,0.872,0.655
NCI-H1666,0.739,0.717,0.522,0.47,0.566,0.554,0.494,0.476,0.833,0.358,0.321,0.202,0.784,0.807,0.492,0.416,0.826,0.334,0.278,0.172
NCI-H1734,0.483,0.445,0.188,0.101,0.369,0.343,0.38,0.191,0.907,0.745,0.8,0.154,0.518,0.45,0.145,0.0601,0.957,0.738,0.405,0.12
NCI-H1755,0.704,0.808,0.689,0.598,0.624,0.466,0.605,0.57,1.01,1.04,0.967,0.223,0.457,0.349,0.38,0.406,1.06,0.831,0.951,0.304
NCI-H1792,0.53,,0.523,0.443,0.342,,0.339,0.118,0.506,0.387,0.584,0.577,0.666,,0.608,0.257,0.894,0.85,0.968,0.986
NCI-H1915,0.254,0.265,0.277,0.205,0.37,,0.38,0.371,1.09,,1.05,0.971,0.716,0.663,0.659,0.368,0.857,,1.01,0.526
NCI-H1975,0.387,0.386,0.308,0.189,0.43,0.329,0.388,0.281,0.942,0.764,0.225,0.126,0.779,0.406,0.292,0.212,0.351,0.316,0.193,0.109
NCI-H1993,0.613,0.505,0.477,0.389,0.512,0.538,0.517,0.53,0.72,0.823,0.683,0.591,0.712,0.618,0.475,0.315,1.07,1.05,0.49,0.493
NCI-H2085,0.561,0.449,0.355,0.297,0.676,0.588,0.512,0.305,0.786,0.596,0.432,0.247,1.04,0.875,0.394,0.25,0.938,0.662,0.577,0.349
NCI-H2087,0.379,0.226,0.175,0.082,0.376,0.343,0.284,0.181,1.01,0.607,0.587,0.696,1.23,0.767,0.589,0.279,0.896,0.49,0.502,0.495
NCI-H2126,0.538,0.616,0.558,0.593,0.562,0.526,0.538,0.46,0.665,0.699,0.731,0.65,1.02,0.972,0.95,0.929,1.11,1.08,1.11,1.17
NCI-H2347,0.662,0.56,0.534,0.475,0.426,0.231,0.294,0.281,0.967,0.88,0.992,0.629,0.703,0.661,0.629,0.447,0.929,0.765,0.891,0.544
NCI-H2405,0.775,0.643,0.336,0.324,0.39,0.335,0.335,0.366,0.899,0.315,0.26,0.27,0.692,0.576,0.269,0.281,0.959,0.842,0.515,0.458
NCI-H3122,0.415,0.455,0.397,0.0861,0.325,0.274,0.261,0.219,1.04,1.07,0.956,0.228,0.97,0.972,0.912,0.0974,1.05,0.994,0.957,0.409
PC-3 [JPC-3],0.877,0.656,0.487,0.524,0.474,0.474,0.496,0.401,0.958,0.907,0.984,0.791,0.741,0.539,0.438,0.401,0.82,0.73,0.764,0.755
PC-14,0.126,0.0523,0.0385,0.0283,0.404,0.16,0.0586,0.023,0.98,0.85,0.0931,0.0455,0.488,0.107,0.055,0.0324,0.862,0.244,0.0404,0.0297
RERF-LC-KJ,0.414,0.288,0.297,0.222,0.341,0.347,0.267,0.218,0.897,0.752,0.412,0.322,1,0.868,0.741,0.297,0.943,0.536,0.322,0.276
